Measured values taken from US20260306463A1, “SIK INHIBITORS TO TREAT CHRONIC KIDNEY DISEASE” (The General Hospital Corporation, priority 2023, published 2026).
“Also recorded” adds a separate entry of the source. Read-outs that look alike come from different tables or passages of the source.

Columns and labels:
[1] = test system: mice with adenine-induced chronic kidney disease; test: adenine diet-induced CKD in mice, 6 weeks: body weight, renal function, mineral metabolism, histology; format: in vivo, mouse (female CD1)
Description: (§1) FIGS. 1A-1E. […] (A) Study design: Female CD1 mice (n=8/group) were treated with control or 0.2% adenine diet starting at 6 weeks of age along with vehicle or SK-124 (40 mg/kg) treatment by oral gavage once daily. Bottom: body weight of mice in the indicated treatment groups. […] (B, C) After 6 weeks of treatment, the indicated analytes were measured in fasting serum or urine. […] (D) H+E-stained kidney sections were assessed on a blinded basis by a pathologist for tubulointerstitial damage. (E) Whole kidney RNA from the indicated groups was analyzed by RT-qPCR for the indicated proximal tubule marker gene. For all panels in all figures, 1-way ANOVA was performed with Dunnett's posthoc analysis to analyze differences between treatment groups, p values less than 0.05 are shown in graph.
(§2) 7-week-old female CD1 mice were obtained from Charles River Laboratories (Wilmington, MA) and were fed on 0.2% adenine containing diet (TD.130900; 0.2% Adenine, 0.9% Phosphate, 0.5% Calcium; Envigo) or control diet (TD. 96348) for 6 or 8 weeks to induce chronic kidney disease (CKD). Mice were oral gavaged with 40 mg/kg SK-124, or intraperitonially injected with 80 μg/kg PTH, or treated with vehicle 5 days a week for the duration of the special diet.
(§3) For studies with Ubiquitin-Cre^ERt2; Sik2^ff; Sik3^ff mice (JAX #007001 for Ubiquitin-Cre^ERt2: RRID:MGL:5905012 for Sik2 foxed mice; and Sik3^tmla(EUCOMM)Hmgu mice (RRID:MGI:5085429) bred to PGK1 FLPo mice (JAX #011065) in order to generate Sik3 foxed mice), tamoxifen was injected (1 mg, IP, Q48 hours, 3 injections total) in all animals including Cre-negative control littermates housed in cages with Pure-o′Cel bedding at 5 weeks of age. Mice were then fed on 0.2% adenine diet from 6 weeks to 9 weeks of age. Mice were fasted for 6 hours and treated with SK-124 and PTH 4 hours and 2 hours before the sacrifice. Blood and spot urine samples were collected by cheek pouch bleeding and by pipetting urine collected on hydrophobic sand (Labsand; Braintree, MA). Kidneys were immediately snap-frozen in liquid nitrogen for TRIzol (Life Technologies)-Chloroform (Fischer Scientific) based RNA isolation or protein isolation, or fixed in 10% formalin at 4C for 24 hrs for histology. All serum and urine measurements were performed using commercial bioassay detection reagents listed in Table 1, following the manufacturers' instructions. Urine protein levels were measured by Bradford assay and normalized to urine creatinine.

[2] = test system: intact proximal tubular epithelial genes; test: whole kidney RNA RT-qPCR of proximal tubule marker genes, adenine CKD mice; format: in vivo, mouse
Description: as §1, §2, §3
cDNA was prepared using Primescript RT kit (Takara Inc), with 750 ng RNA per reaction. […] Hmbs was used as a control housekeeping gene for mouse samples, and B-Actin was used for organoids, relative expression was calculated (2^-deltaCT method) and compared to the mean of control group if necessary. […]

[3] = test system: mice with adenine diet-induced chronic kidney disease; test: 8 week adenine diet CKD study, SK-124 versus once daily PTH injections; format: in vivo, mouse (female CD1); conditions: 8 weeks
Description: FIGS. 4A-4D. […] (A) Study design: Female CD1 mice (n=8/group) were treated with control or 0.2% adenine diet starting at […] of age along with vehicle, PTH (80 mcg/kg/d, IP injections) or SK-124 (40 mg/kg) treatment by oral gavage once daily. Mice were treated for 8 weeks. (B, C) After 8 weeks of treatment, the indicated serum analyte was measured. (D) Whole kidney RNA from the indicated groups was analyzed by RT-qPCR for the indicated fibrosis marker gene.
as §2, §3
cDNA was prepared using Primescript RT kit (Takara Inc), with 750 ng RNA per reaction. RT-qPCR was performed by using PerfeCa® SYBR® Green FAstMix® ROX (Quanta bio) in the StepOnePlus™ Real-time PCR System (Applied Biosystems). Hmbs was used as a control housekeeping gene for mouse samples, and B-Actin was used for organoids, relative expression was calculated (2^-deltaCT method) and compared to the mean of control group if necessary. Primers used for RT-qPCR are listed in Table 2 (mouse primers) and Table 3 (human primers).

[4] = test system: kidney cell clusters; test: single cell RNA-sequencing of dissociated kidneys, adenine CKD mice; format: in vivo, mouse; conditions: SK-124 vs vehicle, adenine diet
Description: FIGS. 6A-6F. The effects of SK-124 treatment at the transcriptomic level in adenine-induced mouse chronic kidney disease. RNA-seq was performed on whole kidney RNA samples (n=7/group) from FIG. 1. Volcano plot show gene regulated (>2-fold change, p(adj)<0.05) by CKD (versus control diet, A) or in CKD by SK-124 (versus vehicle control, B). In Volcano plot, representative fibrosis markers (Col3a1, Vim, Serpinel) and proximal tubule integrity (Lrp2. Atplai, and Hnf4a) are shown. Scatterplot (C) and heatmap (D) showing integration of individual RNA-seq comparisons. […] (E) Single cell RNA-sequencing was performed on dissociated kidneys from adenine diet fed mice treated with vehicle or SK-124 (n=4/group). […] (F) Relative cellularity of each annotated cluster is shown in pie chart format for adenine+vehicle (CKD-Veh) or adenine+SK-124 (CKD-SK-124) mice.
To perform single cell RNA sequencing, mouse kidneys were harvested and immediately dissociated in liberase TH (Millipore Sigma, 05401135001) at 37 degrees for 1 hour at 600 rpm. After removing red blood cells using red blood cell lysis buffer (Sigma, R7757), the cells were further dissociated in Accumax (Stemcell Technologies, 7921) and submitted to MGH Department of Molecular Biology for gel beads in emulsion (GEM) formation and subsequent single cell RNA sequencing using the 10× Genomics Chromium 3′ droplet-based sequencing platform. The CellRanger toolkit (v6.0.2) by 10× Genomics was used to 1) align the sequencing reads to the mouse reference transcriptome (mm10). 2) quantify gene expression, resulting in gene-by-cell UMI count matrices, and 3) aggregate all samples into a single feature barcode matrix containing all the data for downstream analysis. All single cell data analysis was performed in the R software environment for statistical computing and graphics using the package Seurat.

[5] = test system: SIK2/SIK3; conditions: reference to WO 2022/031928, Sato et al., Yoon et al., cited from earlier work
[6] = test system: bone and kidney; conditions: bone and kidney (ref. 7); cited from earlier work
[7] = 0.2% adenine diet, 6 weeks, SK-124 40 mg/kg oral
[8] = whole kidney RNA, RT-qPCR, 6 weeks adenine diet

In the case of `CCc1nnc(-c2c(OC)cc(-c3cnc4cc(-c5cnn(C)c5)ccn34)cc2OC)o1` [SK-124, 2-[2,6-Dimethoxy-4-[7-(1-methylpyrazol-4-yl)imidazo[1,2-a]pyridin-3-yl]phenyl]-5-ethyl-1,3,4-oxadiazole], the BUN [1, 7] is reported as “reduced”, the creatinine [1, 7] is reported as “reduced” and the “cystatin C” value [1, 7] is reported as “reduced”. The hyperphosphatemia [1, 7] was “improved”, the “increased FGF-23” value [1, 7] was “improved” and the proteinuria [1, 7] was “reduced”. The secondary hyperparathyroidism [1, 7] was “improved”, the body weight ([1]; 0.2% adenine diet, 6 weeks, SK-124 40 mg/kg oral gavage once daily, 40 mg/kg) was “CKD-induced weight loss is prevented; also recorded: improved body weight” and the “renal (kidney) function and overall health” value ([1]; 0.2% adenine diet, 6 weeks, SK-124 40 mg/kg oral, 40 mg/kg) was “improves renal function; also recorded: dramatic improvements in renal function and overall health; also recorded: restores kidney function”. For the same compound, the tubule-interstitial damage ([1]; H+E-stained kidney sections, blinded pathologist) was “reduced tubule-interstitial damage”, the “CKD-induced changes of analytes in fasting serum or urine” value ([1]; after 6 weeks of treatment, SK-124 40 mg/kg oral) was “All CKD-induced changes were prevented” and the epithelial cell integrity ([2]; adenine-induced CKD) was “preserves epithelial cell integrity”. For the same compound, the Atpla1 expression [2, 8] was “restored expression”, the Lrp2 expression [2, 8] was “restored expression” and the Slc34a1 expression [2, 8] was “restored expression”. For the same compound, the CKD-MBD markers ([3]; SK-124 40 mg/kg oral gavage once daily, or PTH 80 mcg/kg/d IP) was “reduced CKD-MBD markers”, the kidney function ([3]; SK-124 40 mg/kg oral gavage once daily, or PTH 80 mcg/kg/d IP, 40 mg/kg) was “improved kidney function” and the “fibrosis marker gene expression” value ([3]; whole kidney RT-qPCR, SK-124 40 mg/kg oral, or PTH 80 mcg/kg/d IP) was “reduced fibrosis marker gene expression”. The fibroblast cluster cellularity [4] was “reduces fibroblast cluster cellularity”, the “injury markers (failed repair proximal tubule cells, fibroblasts, and myofibroblasts)” value [4] was “reduced injury markers” and the “numbers of healthy proximal tubule (epithelial) cells” value [4] was “increases numbers of healthy epithelial cells; also recorded: increased numbers of healthy proximal tubule cells”. The SIK isoform selectivity [5] was “specific SIK2/SIK3 inhibitor; also recorded: SIK2/SIK3-selective inhibitor”, the SIK isoform selectivity ([5]; listed as SIK-124) was “selective SIK2/SIK3 inhibitor” and the “PTH-like effects in vivo” value [6] was “PTH-like effects in vivo in bone and kidney”.
